Reference: the NIST ThermoML archive (doi:10.1016/j.jct.2008.07.005)

Assay: xn = mol fraction of the nth substance listed
Conditions: 98.93 kPa, Liquid

CC(O)CO (stereo not given) [1,2-propanediol] + O
mass density [kg/m3]
Conditions	283.15 K	288.15 K	293.15 K	298.15 K	303.15 K	308.15 K
x1 = 0.002	1000.28	999.66	998.73	997.56	996.13	994.48
x1 = 0.005	1001.15	1000.5	999.55	998.32	996.87	995.17
x1 = 0.01	1002.65	1001.93	1000.93	999.63	998.12	996.34
x1 = 0.019	1005.45	1004.9	1003.81	1002.37	1000.73	998.77
x1 = 0.03	1008.94	1007.94	1006.74	1005.17	1003.41	1001.32
x1 = 0.04	1012.38	1011.16	1009.69	1008.04	1006.07	1003.85
x1 = 0.05	1015.77	1014.38	1012.66	1010.8	1008.65	1006.42
x1 = 0.065	1020.67	1018.96	1016.94	1014.74	1012.36	1010.15
x1 = 0.08	1025.18	1023.18	1020.8	1018.36	1015.78	1013.54
x1 = 0.1	1030.57	1027.89	1025.18	1022.6	1019.88	1017.51
x1 = 0.125	1035.97	1032.58	1029.58	1027.01	1024.14	1021.52
x1 = 0.1526	1039.91	1036.53	1033.34	1030.86	1028.08	1024.73
x1 = 0.17	1041.79	1038.5	1035.11	1032.86	1030.11	1026.33
x1 = 0.18	1042.67	1039.47	1035.98	1033.9	1031.1	1027.06
x1 = 0.2	1043.92	1041	1037.19	1035.6	1032.73	1027.98

OCC(O)CO [glycerol] + O
mass density [kg/m3]
Conditions	283.15 K	288.15 K	293.15 K	298.15 K	303.15 K	308.15 K
x1 = 0.002	1002.15	1001.53	1000.6	999.43	998.01	996.37
x1 = 0.005	1005.76	1005.11	1004.14	1002.93	1001.48	999.81
x1 = 0.01	1011.64	1010.93	1009.9	1008.63	1007.12	1005.42
x1 = 0.019	1022.85	1022.06	1020.89	1019.51	1017.89	1016.12
x1 = 0.03	1033.4	1032.52	1031.22	1029.73	1028.03	1026.18
x1 = 0.04	1043.36	1042.38	1040.97	1039.37	1037.58	1035.66
x1 = 0.05	1052.76	1051.69	1050.15	1048.46	1046.58	1044.59
x1 = 0.065	1065.9	1064.68	1062.99	1061.17	1059.16	1057.08
x1 = 0.08	1078.01	1076.64	1074.81	1072.85	1070.74	1068.56
x1 = 0.1	1092.7	1091.17	1089.16	1087.05	1084.79	1082.51
x1 = 0.125	1109.07	1107.35	1105.15	1102.86	1100.45	1098.03
x1 = 0.1526	1124.96	1123.05	1120.68	1118.23	1115.66	1113.11
x1 = 0.17	1133.96	1131.96	1129.5	1126.96	1124.3	1121.66
x1 = 0.18	1138.83	1136.77	1134.27	1131.68	1128.97	1126.28
x1 = 0.2	1147.94	1145.78	1143.22	1140.54	1137.73	1134.94

OCCCO [propan-1,3-diol] + O
mass density [kg/m3]
Conditions	283.15 K	288.15 K	293.15 K	298.15 K	303.15 K	308.15 K
x1 = 0.002	1000.12	999.49	998.61	997.63	996.05	994.51
x1 = 0.005	1000.99	1000.34	999.44	998.44	996.84	995.27
x1 = 0.01	1002.44	1001.75	1000.81	999.76	998.14	996.53
x1 = 0.019	1005.28	1004.53	1003.5	1002.37	1000.71	999
x1 = 0.03	1008.07	1007.24	1006.13	1004.91	1003.2	1001.41
x1 = 0.04	1010.8	1009.9	1008.71	1007.39	1005.63	1003.75
x1 = 0.05	1013.46	1012.49	1011.23	1009.82	1008	1006.03
x1 = 0.065	1017.32	1016.24	1014.85	1013.31	1011.4	1009.3
x1 = 0.08	1021.01	1019.75	1018.24	1016.57	1014.57	1012.35
x1 = 0.1	1025.57	1024.07	1022.38	1020.58	1018.45	1016.06
x1 = 0.125	1030.69	1028.92	1027.01	1025.02	1022.73	1020.19
x1 = 0.1526	1035.61	1033.62	1031.48	1029.18	1026.8	1024.09
x1 = 0.17	1038.35	1036.24	1033.94	1031.44	1029.04	1026.23
x1 = 0.18	1039.8	1037.62	1035.24	1032.61	1030.2	1027.36
x1 = 0.2	1042.35	1040.04	1037.56	1034.66	1032.25	1029.35

CCCO [propan-1-ol] + O
mass density [kg/m3]
Conditions	283.15 K	288.15 K	293.15 K	298.15 K	303.15 K	308.15 K
x1 = 0.002	998.53	997.69	996.58	995.4	994.2	992.72
x1 = 0.005	996.91	996.06	994.95	993.76	992.54	991.05
x1 = 0.009	994.87	994	992.87	991.66	990.43	988.92
x1 = 0.01	994.38	993.49	992.36	991.14	989.92	988.4
x1 = 0.02	989.99	988.99	987.82	986.54	985.27	983.68
x1 = 0.03	986.29	985.17	983.91	982.56	981.2	979.57
x1 = 0.05	979.96	978.27	977.1	975.49	973.96	972.3
x1 = 0.065	975.01	972.88	971.86	969.94	968.38	966.41
x1 = 0.08	969.18	966.99	965.87	963.72	961.92	959.82
x1 = 0.1	960.42	958.48	957.26	954.91	952.93	950.64
x1 = 0.13	947.97	946	944.52	941.96	939.8	937.47
x1 = 0.15	940.47	938.48	936.78	934.12	931.81	929.47
x1 = 0.17	933.5	931.45	929.49	926.68	924.32	922.05
x1 = 0.1856	928.41	926.35	924.19	921.23	918.84	916.61
x1 = 0.2	923.98	921.89	919.56	916.46	914.04	911.83
